In PubChem BioAssay AID330 (DTP/NCI, 2004):
“And” between values parts separate entries of the source, which are not always exact repeats. Equal values may be shown once. Inconclusive results and toxic doses are left out. How the source made its calls: active means survival T/C of 150% or more; inactive means T/C below 125% in these data.

Tested on: P388 leukemia ip, CD2F1 mice, survival T/C
Test: NCI In Vivo Anticancer Drug Screen. Data for tumor model P388 Leukemia (intraperitoneal) in CD2F1 (CDF1) mice
Conditions: endpoint: median survival time, higher = longer survival
Procedure, shortened: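 Mice carrying the transplanted tumor received test compound or vehicle. Survival was recorded in each group, and the value is the treated-group measurement divided by that of the vehicle-treated control group.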

[1] = dose: 50.0 mg/kg/injection, schedule: Q01DX009 (ip), vehicle: saline with Tween-80
[2] = dose: 100.0 mg/kg/injection, schedule: Q01DX009 (ip), vehicle: saline with Tween-80
[3] = dose: 200.0 mg/kg/injection, schedule: Q01DX009 (ip), vehicle: saline with Tween-80
[4] = dose: 50.0 mg/kg/injection, schedule: Q01DX005 (ip), vehicle: Klucel (hydroxypropylcellulose) (HPC)
[5] = dose: 100.0 mg/kg/injection, schedule: Q01DX005 (ip), vehicle: Klucel (hydroxypropylcellulose) (HPC)
[6] = dose: 200.0 mg/kg/injection, schedule: Q01DX005 (ip), vehicle: Klucel (hydroxypropylcellulose) (HPC)
[7] = dose: 50.0 mg/kg/injection, schedule: Q01DX009 (ip), vehicle: Klucel (hydroxypropylcellulose) (HPC)
[8] = dose: 100.0 mg/kg/injection, schedule: Q01DX009 (ip), vehicle: Klucel (hydroxypropylcellulose) (HPC)
[9] = dose: 50.0 mg/kg/injection, schedule: Q01DX005 (ip), vehicle: saline with Tween-80
[10] = dose: 100.0 mg/kg/injection, schedule: Q01DX005 (ip), vehicle: saline with Tween-80
[11] = dose: 200.0 mg/kg/injection, schedule: Q01DX005 (ip), vehicle: saline with Tween-80

Measured: T/C

CCOC(=O)c1ccc(NC(CCl)=NC(C)(C)C)cc1
inactive: [1] 86 % of control | [2] 100 % of control | [3] 90 % of control

O=C1C=CC(=O)N1c1ccc(N2C(=O)C=CC2=O)cc1
inactive: dose: 0.78 mg/kg/injection, schedule: Q01DX009 (ip), vehicle: distilled water + Tween-80 102 % of control and 115 % of control | dose: 1.56 mg/kg/injection, schedule: Q01DX009 (ip), vehicle: distilled water + Tween-80 103 % of control and 120 % of control | dose: 3.13 mg/kg/injection, schedule: Q01DX009 (ip), vehicle: distilled water + Tween-80 121 % of control and 97 % of control | dose: 6.25 mg/kg/injection, schedule: Q01DX009 (ip), vehicle: distilled water + Tween-80 112 % of control and 118 % of control | dose: 12.5 mg/kg/injection, schedule: Q01DX009 (ip), vehicle: distilled water + Tween-80 105 % of control

CC1S(=O)(=O)O[Si](C)(C)CC[Si](C)(C)OS1(=O)=O
inactive: [4] 105 % of control | [5] 100 % of control | [6] 102 % of control

CC1(C)N=C(N)N=C(N)N1c1ccc(CCc2ccccc2)c(Cl)c1
inactive: dose: 4.1 mg/kg/injection, schedule: Q01DX009 (ip), vehicle: saline with Tween-80 118 % of control | dose: 6.25 mg/kg/injection, schedule: Q04DX003 (ip), vehicle: saline sonified 113 % of control | dose: 9.3 mg/kg/injection, schedule: Q01DX009 (ip), vehicle: saline with Tween-80 118 % of control | dose: 12.5 mg/kg/injection, schedule: Q04DX003 (ip), vehicle: saline sonified 104 % of control | dose: 25.0 mg/kg/injection, schedule: Q04DX003 (ip), vehicle: saline sonified 100 % of control

COc1cc(/C=C(\Cc2ccc(OC)c(OCc3ccccc3)c2)[N+](=O)[O-])ccc1OCc1ccccc1
inactive: [7] 89 % of control | [8] 87 % of control | dose: 200.0 mg/kg/injection, schedule: Q01DX009 (ip), vehicle: Klucel (hydroxypropylcellulose) (HPC) 88 % of control

NC(=S)N1CCCC1
inactive: dose: 25.0 mg/kg/injection, schedule: Q01DX009 (ip), vehicle: saline with Tween-80 95 % of control | [1] 93 % of control | [2] 98 % of control | [3] 89 % of control

CC(=O)n1c(Cl)c(C=O)c2ccccc21
inactive: dose: 100.0 mg/kg/injection, schedule: Q01DX001 (ip), vehicle: Klucel (hydroxypropylcellulose) (HPC) 99 % of control | dose: 200.0 mg/kg/injection, schedule: Q01DX001 (ip), vehicle: Klucel (hydroxypropylcellulose) (HPC) 99 % of control | dose: 400.0 mg/kg/injection, schedule: Q01DX001 (ip), vehicle: Klucel (hydroxypropylcellulose) (HPC) 100 % of control

COc1cc2c[n+](C)c(-c3ccc(Cl)c(Cl)c3)c(OC)c2cc1OC
inactive: dose: 12.5 mg/kg/injection, schedule: Q04DX003 (ip), vehicle: saline 101 % of control | dose: 25.0 mg/kg/injection, schedule: Q04DX003 (ip), vehicle: saline 100 % of control | dose: 50.0 mg/kg/injection, schedule: Q04DX003 (ip), vehicle: saline 100 % of control

CNC(=O)NNC(=O)c1ccccc1Cl
inactive: dose: 60.0 mg/kg/injection, schedule: Q01DX005 (ip), vehicle: saline with Tween-80 106 % of control | dose: 120.0 mg/kg/injection, schedule: Q01DX005 (ip), vehicle: saline with Tween-80 101 % of control | dose: 240.0 mg/kg/injection, schedule: Q01DX005 (ip), vehicle: saline with Tween-80 103 % of control

CCOC(=O)CN1CCC2CC1c1c([nH]c3ccccc13)C2c1cc2c(cc1OC)N(C)C1C(O)(C(=O)OC)C(OC(C)=O)C3(CC)C=CCN4CCC21C43 (stereo unspecified)
inactive: dose: 0.03 mg/kg/injection, schedule: Q04DX003 (ip), vehicle: saline with Tween-80 94 % of control | dose: 0.06 mg/kg/injection, schedule: Q01DX009 (ip), vehicle: Klucel (hydroxypropylcellulose) (HPC) 94 % of control | dose: 0.06 mg/kg/injection, schedule: Q04DX003 (ip), vehicle: saline with Tween-80 92 % of control | dose: 0.13 mg/kg/injection, schedule: Q01DX009 (ip), vehicle: Klucel (hydroxypropylcellulose) (HPC) 93 % of control | dose: 0.13 mg/kg/injection, schedule: Q04DX003 (ip), vehicle: saline with Tween-80 95 % of control | dose: 0.25 mg/kg/injection, schedule: Q04DX003 (ip), vehicle: saline with Tween-80 98 % of control | dose: 0.5 mg/kg/injection, schedule: Q04DX003 (ip), vehicle: saline with Tween-80 112 % of control | dose: 1.0 mg/kg/injection, schedule: Q01DX009 (ip), vehicle: Klucel (hydroxypropylcellulose) (HPC) 90 % of control | dose: 13.0 micrograms/kg/injection, schedule: Q01DX009 (ip), vehicle: Klucel (hydroxypropylcellulose) (HPC) 98 % of control | dose: 25.0 micrograms/kg/injection, schedule: Q01DX009 (ip), vehicle: Klucel (hydroxypropylcellulose) (HPC) 103 % of control | dose: 50.0 micrograms/kg/injection, schedule: Q01DX009 (ip), vehicle: Klucel (hydroxypropylcellulose) (HPC) 94 % of control | dose: 100.0 micrograms/kg/injection, schedule: Q01DX009 (ip), vehicle: Klucel (hydroxypropylcellulose) (HPC) 100 % of control | dose: 200.0 micrograms/kg/injection, schedule: Q01DX009 (ip), vehicle: Klucel (hydroxypropylcellulose) (HPC) 103 % of control

CC(C)(C)OCC(NC(=O)OC(C)(C)C)C(=O)O (stereo unspecified)
inactive: [9] 100 % of control | [10] 103 % of control | [11] 97 % of control

O=[N+]([O-])c1cc2cccc([N+](=O)[O-])c2o1
inactive: [4] 100 % of control | [5] 109 % of control | [6] 102 % of control

CCOC(=O)C(C)ONC(=O)Nc1ccc(Cl)cc1 (stereo unspecified)
inactive: [1] 105 % of control | [2] 103 % of control | [3] 95 % of control

CCN(CC)c1ccc(NC2=CC(=O)C(Nc3ccc(N(CC)CC)cc3)=CC2=O)cc1
inactive: [9] 91 % of control | [10] 89 % of control | [11] 89 % of control

O=C(c1ccccc1)c1no[n+]([O-])c1C(=O)c1ccccc1
inactive: dose: 3.12 mg/kg/injection, schedule: Q01DX009 (ip), vehicle: Klucel (hydroxypropylcellulose) (HPC) 102 % of control and 114 % of control and 116 % of control | dose: 6.25 mg/kg/injection, schedule: Q01DX009 (ip), vehicle: Klucel (hydroxypropylcellulose) (HPC) 100 % of control and 117 % of control | dose: 12.5 mg/kg/injection, schedule: Q01DX009 (ip), vehicle: Klucel (hydroxypropylcellulose) (HPC) 105 % of control and 123 % of control

C=C1C(=O)O[C@H]2CC(C)C3C[C@@H](O)OC(O)[C@]3(C)C[C@@H]12 (stereo partly specified)
inactive: dose: 2.38 mg/kg/injection, schedule: Q01DX005 (ip), vehicle: Klucel (hydroxypropylcellulose) (HPC) 101 % of control | dose: 4.75 mg/kg/injection, schedule: Q01DX005 (ip), vehicle: Klucel (hydroxypropylcellulose) (HPC) 111 % of control | dose: 9.5 mg/kg/injection, schedule: Q01DX005 (ip), vehicle: Klucel (hydroxypropylcellulose) (HPC) 102 % of control

O=C1/C(=C/C=C/c2ccccc2)C(=S)SN1Cc1ccco1
inactive: [7] 96 % of control | [8] 97 % of control

O=C(O)c1c(Cl)n(Cc2ccc(Cl)cc2Cl)c2ccccc12
inactive: dose: 60.0 mg/kg/injection, schedule: Q01DX005 (ip), vehicle: Klucel (hydroxypropylcellulose) (HPC) 100 % of control | dose: 120.0 mg/kg/injection, schedule: Q01DX005 (ip), vehicle: Klucel (hydroxypropylcellulose) (HPC) 103 % of control and 93 % of control | dose: 240.0 mg/kg/injection, schedule: Q01DX005 (ip), vehicle: Klucel (hydroxypropylcellulose) (HPC) 104 % of control and 93 % of control

Cc1ccc(S(=O)(=O)OI(C#Cc2ccccc2)c2ccccc2)cc1
inactive: dose: 77.5 mg/kg/injection, schedule: Q04DX002 (ip), vehicle: Klucel (hydroxypropylcellulose) (HPC) 99 % of control | dose: 155.0 mg/kg/injection, schedule: Q04DX002 (ip), vehicle: Klucel (hydroxypropylcellulose) (HPC) 89 % of control | dose: 310.0 mg/kg/injection, schedule: Q04DX002 (ip), vehicle: Klucel (hydroxypropylcellulose) (HPC) 99 % of control
